Results: patent US4806556A, “Gut-selective opiates” (Regents of the University of Minnesota, priority 1987, dated 1989)

Experiments:
[1] = tested on: electrically-stimulated guinea pig ileum (GPI) preparations; assay: Antagonist activity: displacement of the morphine concentration-response curve on guinea pig ileum preparation; conditions: for Antagonism (Morphine IC50 Ratio): factor by which the morphine concentration-response curve is shifted to higher concentration: IC50 of morphine with antagonist / control IC50, 3 determinations
[2] = tested on: electrically-stimulated guinea pig ileum (GPI) preparations; assay: Agonist activity: inhibition of contraction of electrically-stimulated guinea pig ileum (GPI) preparation, compared to morphine; set-up: Emax: dose or concentration left out as unconfirmed; conditions: for Agonism (Morphine = 1): potency factor for the inhibition of contraction relative to that of morphine: electrically stimulated guinea pig ileum, 3 determinations; for Emax: Cavia porcellus, read-out: Agonism: partial agonist, maximal response relative to that of morphine; for Agonist activity on GPI (in words): compared to morphine

## CN1CC[C@]23c4c5ccc(O)c4O[C@H]2C(NC(=O)/C=C\C(=O)O)CC[C@@]3(O)[C@H]1C5 (stereo partly drawn) [Compound 10]
[1]; ligand concentration 200 nM
  Antagonism (Morphine IC50 Ratio): factor by which the morphine concentration-response curve is shifted to higher concentration: 1
[2]
  Agonism (Morphine = 1): potency factor for the inhibition of contraction relative to that of morphine: 2.7

## O=C(O)COCC(=O)NC1CC[C@@]2(O)[C@H]3Cc4ccc(O)c5c4[C@@]2(CCN3CC2CC2)[C@H]1O5 (stereo partly drawn) [Compound 4]
[1]; ligand concentration 200 nM
  Antagonism (Morphine IC50 Ratio): factor by which the morphine concentration-response curve is shifted to higher concentration: 34.8
[2]
  Emax: 30 to 60%
  Agonist activity on GPI (in words): submaximal responses relative to morphine

## O=C(O)CCC(=O)NC1CC[C@@]2(O)[C@H]3Cc4ccc(O)c5c4[C@@]2(CCN3CC2CC2)[C@H]1O5 (stereo partly drawn) [Compound 1]
[1]; ligand concentration 200 nM
  Antagonism (Morphine IC50 Ratio): factor by which the morphine concentration-response curve is shifted to higher concentration: 11.0
[2]
  Emax: 30 to 60%
  Agonist activity on GPI (in words): submaximal responses relative to morphine

## CN1CC[C@]23c4c5ccc(O)c4O[C@H]2C(NC(=O)/C=C/C(=O)O)CC[C@@]3(O)[C@H]1C5 (stereo partly drawn) [Compound 9]
[1]; ligand concentration 200 nM
  Antagonism (Morphine IC50 Ratio): factor by which the morphine concentration-response curve is shifted to higher concentration: 1
[2]
  Agonism (Morphine = 1): potency factor for the inhibition of contraction relative to that of morphine: 1.5

## N=C(N)NCCCC(N)C(=O)N[C@@H]1CC[C@@]2(O)[C@H]3Cc4ccc(O)c5c4[C@@]2(CCN3CC2CC2)[C@H]1O5 (stereo partly drawn) [Compound 5, Arginyl-β-naltrexamine]
[1]; ligand concentration 200 nM
  Antagonism (Morphine IC50 Ratio): factor by which the morphine concentration-response curve is shifted to higher concentration: 4.0
[2]
  Emax: 30 to 60%
  Agonist activity on GPI (in words): submaximal responses relative to morphine

## N=C(N)NN=C1CC[C@@]2(O)[C@H]3Cc4ccc(O)c5c4[C@@]2(CCN3CC2CC2)[C@H]1O5 [Compound 16, Naltrexazone iminosemicarbazone]
[2]
  Agonism (Morphine = 1): potency factor for the inhibition of contraction relative to that of morphine: 29

## CN1CC[C@]23c4c5ccc(O)c4O[C@H]2C(NC(=O)COCC(=O)O)CC[C@@]3(O)[C@H]1C5 (stereo partly drawn) [Compound 11]
[1]; ligand concentration 200 nM
  Antagonism (Morphine IC50 Ratio): factor by which the morphine concentration-response curve is shifted to higher concentration: 1
[2]
  Agonism (Morphine = 1): potency factor for the inhibition of contraction relative to that of morphine: 3.1

## O=C(O)CN[C@@H]1CC[C@@]2(O)[C@H]3Cc4ccc(O)c5c4[C@@]2(CCN3CC2CC2)[C@H]1O5 [Compound 7, β-Naltrexamineacetic acid]
[1]; ligand concentration = 20 nM
  Antagonism (Morphine IC50 Ratio): factor by which the morphine concentration-response curve is shifted to higher concentration: 2.4
[2]
  Emax: 30 to 60%
  Agonist activity on GPI (in words): submaximal responses relative to morphine

## O=C(O)/C=C/C(=O)NC1CC[C@@]2(O)[C@H]3Cc4ccc(O)c5c4[C@@]2(CCN3CC2CC2)[C@H]1O5 (stereo partly drawn) [Compound 3]
[1]; ligand concentration = 20 nM
  Antagonism (Morphine IC50 Ratio): factor by which the morphine concentration-response curve is shifted to higher concentration: 3.7
[2]
  Agonism (Morphine = 1): potency factor for the inhibition of contraction relative to that of morphine: 3

## O=C(O)CNN=C1CC[C@@]2(O)[C@H]3Cc4ccc(O)c5c4[C@@]2(CCN3CC2CC2)[C@H]1O5 [Compound 15, Naltrexazoneacetic acid]
[1]; ligand concentration 200 nM
  Antagonism (Morphine IC50 Ratio): factor by which the morphine concentration-response curve is shifted to higher concentration: 100
[2]
  Emax: 30 to 60%

## CN1CC[C@]23c4c5ccc(O)c4O[C@H]2C(NC(=O)C(N)CC(=O)O)CC[C@@]3(O)[C@H]1C5 (stereo partly drawn) [Compound 12]
[1]; ligand concentration 200 nM
  Antagonism (Morphine IC50 Ratio): factor by which the morphine concentration-response curve is shifted to higher concentration: 1
[2]
  Agonism (Morphine = 1): potency factor for the inhibition of contraction relative to that of morphine: 6.1

## CN1CC[C@]23c4c5ccc(O)c4O[C@H]2C(NC(=O)CCC(=O)O)CC[C@@]3(O)[C@H]1C5 (stereo partly drawn) [Compound 8]
[1]; ligand concentration 200 nM
  Antagonism (Morphine IC50 Ratio): factor by which the morphine concentration-response curve is shifted to higher concentration: 1
[2]
  Agonism (Morphine = 1): potency factor for the inhibition of contraction relative to that of morphine: 1.6

## NC(CC(=O)O)C(=O)NC1CCC2(O)C3Cc4ccc(O)c5c4C2(CCN3CC2CC2)C1O5 (stereo not drawn) [Compound 6]
[1]
  Morphine antagonist activity on GPI (in words): possible exception to this generality
[1]; ligand concentration 200 nM
  Antagonism (Morphine IC50 Ratio): factor by which the morphine concentration-response curve is shifted to higher concentration: 1
[2]
  Agonism (Morphine = 1): potency factor for the inhibition of contraction relative to that of morphine: 14.2
